In patent publication US20060069132A1, “Azolecarboxamide herbicides” (priority 2004, published 2006):

How the values were obtained:
[1] = test system: smallflower umbrella sedge; assay: Test C flooded paddy test; assay type: in vivo, Cyperus difformis
[2] = test system: rice; assay: Test B pre-/postemergence herbicide test; assay type: in vivo, Oryza sativa; conditions: preemergence
Procedure, shortened: (§1)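 Visual rating, 0 (no effect) to 100 (complete control), versus untreated controls after 13–15 d in greenhouse. Pre- and postemergence applications (postemergence plants 2–18 cm, 1–4 leaves); flooded paddy arm at 2-leaf stage. Compounds in non-phytotoxic solvent plus surfactant.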

[3] = test system: giant foxtail; assay: Test B pre-/postemergence herbicide test; assay type: in vivo, Setaria faberi; conditions: for Plant response rating, Foxtail, Giant: preemergence; for Foxtail, Giant plant response rating: postemergence, visual rating, scale 0 (no effect) to 100 (complete control)
Procedure, shortened: as §1

[4] = test system: ducksalad; assay: Test B flooded paddy test; assay type: in vivo, Heteranthera limosa; conditions: 1000 g ai/ha, visual rating, scale 0 to 100 (0 no effect, 100 complete control), 13 to 15 days
Procedure, shortened: (§2)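 Scale 0–100: zero equals no visible effect, 100 complete control, judged by eye relative to controls. Timing: 13 to 15 days in greenhouse post-treatment. Growth stage at spraying: two leaves (paddy) or one to four leaves, 2–18 cm (postemergence).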

[5] = test system: lambsquarters; assay: Test B pre-/postemergence herbicide test; assay type: in vivo, Chenopodium album; conditions: for Plant response rating, Lambsquarters: preemergence; for Lambsquarters plant response rating: postemergence, visual rating, scale 0 (no effect) to 100 (complete control)
Procedure, shortened: as §1

[6] = test system: blackgrass; assay: Test B postemergence herbicide test; assay type: in vivo, Alopecurus myosuroides; conditions: postemergence, visual rating, scale 0 (no effect) to 100 (complete control)
Procedure, shortened: as §2

[7] = test system: barnyardgrass; assay: Test B flooded paddy test; assay type: in vivo, Echinochloa crus-galli; conditions: 1000 g ai/ha, visual rating, scale 0 to 100 (0 no effect, 100 complete control), 13 to 15 days
Procedure, shortened: as §2

[8] = test system: morningglory; assay: Test B pre-/postemergence herbicide test; assay type: in vivo, Ipomoea coccinea; conditions: for Morningglory plant response rating: postemergence, visual rating, scale 0 (no effect) to 100 (complete control)
Procedure, shortened: (§3)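 Formulation: non-phytotoxic solvent mix with surfactant. Timing: preemergence on seed and postemergence on 2–18 cm plants, applied concurrently. Readout after 13–15 d greenhouse: visual 0–100 control rating against controls.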

[9] = test system: wheat; assay: Test B postemergence herbicide test; assay type: in vivo, Triticum aestivum; set-up: key to Wheat plant response rating: 0 = no effect, 100 = complete control; conditions: postemergence, 500 g ai/ha; visual rating, scale 0 (no effect) to 100 (complete control)
Procedure, shortened: as §2

[10] = test system: barnyardgrass; assay: Test B pre-/postemergence herbicide test; assay type: in vivo, Echinochloa crus-galli; conditions: for Plant response rating, Barnyardgrass: preemergence; for Barnyardgrass plant response rating: postemergence, visual rating, scale 0 (no effect) to 100 (complete control)
Procedure, shortened: as §3

[11] = test system: velvetleaf; assay: Test B pre-/postemergence herbicide test; assay type: in vivo, Abutilon theophrasti; conditions: for Plant response rating, Velvetleaf: preemergence; for Velvetleaf plant response rating: postemergence, visual rating, scale 0 (no effect) to 100 (complete control)
Procedure, shortened: as §1

[12] = test system: pigweed; assay: Test B pre-/postemergence herbicide test; assay type: in vivo, Amaranthus retroflexus; conditions: for Plant response rating, Pigweed: preemergence; for Pigweed plant response rating: postemergence, visual rating, scale 0 (no effect) to 100 (complete control)
Procedure, shortened: as §1

[13] = test system: ducksalad; assay: Test C flooded paddy test; assay type: in vivo, Heteranthera limosa
[14] = test system: large crabgrass; assay: Test B pre-/postemergence herbicide test; assay type: in vivo, Digitaria sanguinalis; conditions: for Plant response rating, Crabgrass, Large: preemergence; for Crabgrass, Large plant response rating: postemergence, visual rating, scale 0 (no effect) to 100 (complete control)
Procedure, shortened: as §1

[15] = test system: rice; assay: Test C flooded paddy test; assay type: in vivo, Oryza sativa
Procedure, shortened: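 Injury scored visually against controls on a 0 (no effect) to 100 (complete control) scale, 12 to 14 days after treatment in greenhouse. Flooded paddy plants treated at 2-leaf stage; postemergence plants at 1- to 4-leaf stage, 2 to 18 cm tall.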

[16] = test system: rice; assay: Test B flooded paddy test; assay type: in vivo, Oryza sativa; conditions: 1000 g ai/ha, visual rating, scale 0 to 100 (0 no effect, 100 complete control), 13 to 15 days
Procedure, shortened: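 Read-out: visual comparison with controls, scored 0 to 100, where 100 means complete control and 0 no effect. Formulated chemicals were applied postemergence to plants 2–18 cm tall (1- to 4-leaf), or to flooded-paddy plants at the 2-leaf stage, then held 13 to 15 days under glass.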

[17] = test system: small flower umbrella sedge; assay: Test B flooded paddy test; assay type: in vivo, Cyperus difformis; conditions: 1000 g ai/ha, visual rating, scale 0 to 100 (0 no effect, 100 complete control), 13 to 15 days
Procedure, shortened: as §2

[18] = test system: corn; assay: Test B pre-/postemergence herbicide test; assay type: in vivo, Zea mays; conditions: for Plant response rating, Corn: preemergence; for Corn plant response rating: postemergence, visual rating, scale 0 (no effect) to 100 (complete control)
Procedure, shortened: as §1

[19] = test system: wild oat; assay: Test B postemergence herbicide test; assay type: in vivo, Avena fatua; conditions: postemergence, visual rating, scale 0 (no effect) to 100 (complete control)
Procedure, shortened: as §2

[20] = test system: Surinam grass; assay: Test B pre-/postemergence herbicide test; assay type: in vivo, Urochloa decumbens; conditions: for Plant response rating, Surinam Grass: preemergence; for Surinam Grass plant response rating: postemergence, visual rating, scale 0 (no effect) to 100 (complete control)
Procedure, shortened: as §1

[21] = test system: barnyardgrass; assay: Test C flooded paddy test; assay type: in vivo, Echinochloa crus-galli
Procedure, shortened: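 Scoring by eye, 12–14 days post-treatment, greenhouse-held plants vs. controls; 0 no effect, 100 complete control. Sprayed at 1–4 leaves (2–18 cm); paddy barnyardgrass at 2 leaves, flooded.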

[22] = test system: cocklebur; assay: Test B pre-/postemergence herbicide test; assay type: in vivo, Xanthium strumarium; conditions: for Plant response rating, Cocklebur: preemergence; for Cocklebur plant response rating: postemergence, visual rating, scale 0 (no effect) to 100 (complete control)
Procedure, shortened: as §3

[23] = 62 g ai/ha, scale 0 to 100 (0 no effect, 100 complete control)
[24] = 125 g ai/ha, scale 0 to 100 (0 no effect, 100 complete control)
[25] = 250 g ai/ha, scale of 0 to 100, 0 is no effect, 100 is complete control
[26] = 500 g ai/ha, visual rating after 12 to 14 days, scale 0 to 100 (0 no effect, 100 complete control)
[27] = 500 g ai/ha, visual rating 0-100, 0 no effect, 100 complete control
[28] = 125 g ai/ha, 0 to 100 scale, 0 is no effect, 100 is complete control

## CCn1nc(C(C)(C)C)cc1C(=O)Nc1cc(C(=O)N2CC=CC2)ccn1 [Compound 142]
[1]; [23]
  Sedge, Umbrella plant response rating: 75
[1]; [24]
  Sedge, Umbrella plant response rating: 80
[1]; [25]
  Sedge, Umbrella plant response rating: 80
[1]; [26]
  Plant response rating, Sedge, Umbrella: 90
[2]; [27]
  Plant response rating, Rice: 80
[2]; [28]
  Plant response rating, Rice: 30
[3]; [27]
  Plant response rating, Foxtail, Giant: 100
[3]; 125 g ai/ha
  Foxtail, Giant plant response rating: 30
[3]; 500 g ai/ha
  Foxtail, Giant plant response rating: 30
[3]; [28]
  Plant response rating, Foxtail, Giant: 60
[4]
  Ducksalad plant response rating: 90
[5]; [27]
  Plant response rating, Lambsquarters: 100
[5]; 125 g ai/ha
  Lambsquarters plant response rating: 60
[5]; 500 g ai/ha
  Lambsquarters plant response rating: 80
[5]; [28]
  Plant response rating, Lambsquarters: 100
[6]; 125 g ai/ha
  Blackgrass plant response rating: 40
[6]; 500 g ai/ha
  Blackgrass plant response rating: 40
[7]
  Barnyardgrass plant response rating: 90
[8]; 500 g ai/ha, visual rating 0-100, 0 no effect, 100 complete control, preemergence
  Plant response rating, Morningglory: 30
[8]; 125 g ai/ha
  Morningglory plant response rating: 0
[8]; 500 g ai/ha
  Morningglory plant response rating: 50
[9]
  Wheat plant response rating: 10
[10]; [27]
  Plant response rating, Barnyardgrass: 100
[10]; 125 g ai/ha
  Barnyardgrass plant response rating: 0
[10]; 500 g ai/ha
  Barnyardgrass plant response rating: 10
[10]; [28]
  Plant response rating, Barnyardgrass: 70
[11]; [27]
  Plant response rating, Velvetleaf: 100
[11]; 125 g ai/ha
  Velvetleaf plant response rating: 10
[11]; 500 g ai/ha
  Velvetleaf plant response rating: 60
[11]; [28]
  Plant response rating, Velvetleaf: 80
[12]; [27]
  Plant response rating, Pigweed: 100
[12]; 125 g ai/ha
  Pigweed plant response rating: 50
[12]; 500 g ai/ha
  Pigweed plant response rating: 60
[12]; [28]
  Plant response rating, Pigweed: 100
[13]; [23]
  Ducksalad plant response rating: 75
[13]; [24]
  Ducksalad plant response rating: 90
[13]; [25]
  Ducksalad plant response rating: 95
[13]; [26]
  Plant response rating, Ducksalad: 100
[14]; [27]
  Plant response rating, Crabgrass, Large: 100
[14]; 125 g ai/ha
  Crabgrass, Large plant response rating: 0
[14]; 500 g ai/ha
  Crabgrass, Large plant response rating: 10
[14]; [28]
  Plant response rating, Crabgrass, Large: 80
[15]; [23]
  Rice plant response rating: 70
[15]; [24]
  Rice plant response rating: 70
[15]; [25]
  Rice plant response rating: 70
[15]; [26]
  Plant response rating, Rice: 70
[16]
  Rice plant response rating: 70
[17]
  Sedge, Umbrella plant response rating: 80
[18]; [27]
  Plant response rating, Corn: 0
[18]; 125 g ai/ha
  Corn plant response rating: 0
[18]; 500 g ai/ha
  Corn plant response rating: 0
[18]; [28]
  Plant response rating, Corn: 0
[19]; 125 g ai/ha
  Oat, Wild plant response rating: 20
[19]; 500 g ai/ha
  Oat, Wild plant response rating: 20
[20]; [27]
  Plant response rating, Surinam Grass: 60
[20]; 125 g ai/ha
  Surinam Grass plant response rating: 10
[20]; 500 g ai/ha
  Surinam Grass plant response rating: 20
[20]; [28]
  Plant response rating, Surinam Grass: 10
[21]; [23]
  Barnyardgrass plant response rating: 50
[21]; 125 g ai/ha, scale of 0 to 100, 0 is no effect, 100 is complete control
  Barnyardgrass plant response rating: 65
[21]; [25]
  Barnyardgrass plant response rating: 80
[21]; [26]
  Plant response rating, Barnyardgrass: 90
[22]; [27]
  Plant response rating, Cocklebur: 40
[22]; 125 g ai/ha
  Cocklebur plant response rating: 40
[22]; 500 g ai/ha
  Cocklebur plant response rating: 40
[22]; [28]
  Plant response rating, Cocklebur: 30
